Patent US11326168B2, “Use of potassium channel inhibitor for treating depression” (ZHEJIANG UNIVERSITY, priority 2017, dated 2022)

Target: T1, Kir4.1 (Homo sapiens, UniProt P78508)
T1 sequence (P78508 1-379): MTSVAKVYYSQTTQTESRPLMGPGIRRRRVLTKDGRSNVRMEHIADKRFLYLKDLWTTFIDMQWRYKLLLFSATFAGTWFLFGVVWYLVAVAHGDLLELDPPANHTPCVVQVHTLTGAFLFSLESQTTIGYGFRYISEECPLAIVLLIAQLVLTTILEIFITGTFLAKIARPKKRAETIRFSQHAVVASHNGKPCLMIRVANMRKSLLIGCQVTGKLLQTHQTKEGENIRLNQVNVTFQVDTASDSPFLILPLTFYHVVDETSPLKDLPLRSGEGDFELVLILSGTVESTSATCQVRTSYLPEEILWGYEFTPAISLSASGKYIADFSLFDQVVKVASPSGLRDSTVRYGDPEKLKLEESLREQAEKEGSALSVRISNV
Settings: Ohno et al., 2007; Wang et al., 2006; Kharade et al., 2018; cited from earlier work
For CC(C)c1ccc(OCC(=O)NC2CC(C)(C)NC(C)(C)C2)c(Br)c1 [VU0134992], the “Kir4.1 inhibition (literature statement)” value is listed as “highly selective and specific Kir4.1 inhibitor”. In the case of CN(C)CCC=C1c2ccccc2CCc2ccccc21 [amitriptyline], the “Kir4.1 inhibition (literature statement)” value is listed as “inhibit Kir4.1, yet with lower affinity”. For CNCCCN1c2ccccc2CCc2ccccc21 [desipramine], the “Kir4.1 inhibition (literature statement)” value is listed as “inhibit Kir4.1, yet with lower affinity”. For CNCCC(Oc1ccc(C(F)(F)F)cc1)c1ccccc1 (stereo not shown) [fluoxetine], the “Kir4.1 inhibition (literature statement)” value is given as “inhibit Kir4.1, yet with lower affinity”. In the case of COCCCC/C(=N\OCCN)c1ccc(C(F)(F)F)cc1 [fluvoxamine], the “Kir4.1 inhibition (literature statement)” value is listed as “inhibit Kir4.1, yet with lower affinity”. For CN(C)CCCN1c2ccccc2CCc2ccccc21 [imipramine], the “Kir4.1 inhibition (literature statement)” value is given as “inhibit Kir4.1, yet with lower affinity”. In the case of CNCCC=C1c2ccccc2CCc2ccccc21 [nortriptyline], the “Kir4.1 inhibition (literature statement)” value is listed as “inhibit Kir4.1, yet with lower affinity”. In the case of CN[C@H]1CC[C@@H](c2ccc(Cl)c(Cl)c2)c2ccccc21 [sertraline], the “Kir4.1 inhibition (literature statement)” value is given as “inhibit Kir4.1, yet with lower affinity”.

System: LHb neurons
Format: cell-based
Settings: not given
For [Ba+2].[Cl-].[Cl-] [BaCl2], the “firing frequency of bursting neurons” value was “dramatic increase”.

Same assay, conditions: BaCl2 100 μM, about 10 min bath perfusion
With [Ba+2].[Cl-].[Cl-] [BaCl2] the “RMPs of tonic and burst-firing LHb neurons” value was “depolarized”.
